Data published in patent US20080058213A1, “Benzoxazole Compounds” (priority 2004, published 2008).

Assays:
Assay type in all cases: in vivo
[1] = test system: corn; experiment: Soil treatment test for upland field (Test Example 2): phytotoxicity to corn; conditions: soil treatment before germination, examined after 3 weeks
Text: (§1) Evaluation of phytotoxicity is shown in the following six grades, as compared with the condition of untreated control: • 0: normal growth • 1: little damaged • 2: low damaged • 3: medium damaged • 4: serious damaged • 5: complete killed.
(§2) Upland field soil was filled in 1/3,000 are pots, seeded with southern crabgrass (Digitaria ciliaris), common lambsquaters (Chenopodium album), slender amaranth (Amaranthus viridis), common purslane (Portulaca oleracea), velvetleaf (Abutilon theophrasti), wheat, corn and soybean. The seeds were covered up with the soil.
(§3) After placing the test pots in a glasshouse which was kept at an average temperature of 25° C. for 3 weeks, the herbicidal effect was examined.

[2] = test system: wheat; experiment: Soil treatment test for upland field (Test Example 2): phytotoxicity to wheat; conditions: soil treatment before germination, examined after 3 weeks
Text: as §1, §2, §3

[3] = test system: wheat; experiment: Foliage treatment test for upland field (Test Example 3): phytotoxicity to wheat; conditions: foliage treatment at 1.0-2.0 leaf stage of southern crabgrass, examined after 3 weeks
Protocol: as §1
(§4) Compost mixed soil was filled in 1/3,000 are pots, seeded with southern crabgrass, common lambsquaters, slender amaranth, common purslane, velvetleaf, wheat, corn and soybean. The seeds were covered up with the soil and cultured in a glasshouse kept at 25° C. on the average.
(§5) After placing the test pots in a grasshouse kept at 25° C. on the average for 3 weeks, the herbicidal effect was examined.

[4] = test system: soybean; experiment: Foliage treatment test for upland field (Test Example 3): phytotoxicity to soybean; conditions: foliage treatment at 1.0-2.0 leaf stage of southern crabgrass, examined after 3 weeks
Protocol: as §1, §4, §5

[5] = test system: common lambsquaters; experiment: Foliage treatment test for upland field (Test Example 3): common lambsquaters; conditions: foliage treatment at 1.0-2.0 leaf stage of southern crabgrass, examined after 3 weeks
Text: (§6) Evaluation of the herbicidal effect is shown in the following six grades, by comparing the condition of untreated control and growth inhibition (%): • 0: 0%-less than 20% • 1: 20%-less than 40% • 2: 40%-less than 60% • 3: 60%-less than 80% • 4: 80%-less than 100% • 5: 100%.
as §4
(§7) Wettable powders containing the object compounds (1) as identified in Table 1, which were formulated following Preparation Example 2, were diluted with water to the prescribed dose of the active ingredient, and uniformly sprayed onto the weeds at 1.0-2.0 leaf stage of the southern crabgrass at an application water of 15 liters per are.
as §5
(§8) Evaluation of the herbicidal effect was conducted in the similar manner to Test Example 1.

[6] = test system: slender amaranth (Amaranthus viridis); experiment: Soil treatment test for upland field (Test Example 2): slender amaranth; conditions: soil treatment before germination, examined after 3 weeks
Text: as §6, §2
(§9) Wettable powders containing the object compounds (1) as identified in Table 1, which were formulated following Preparation Example 2, were diluted with adequate amount of water to secure the prescribed dose of the active ingredient, and uniformly sprayed onto the surface soil layer after the seeding and before germination of the weeds, at an application water of 15 liters per are.
as §3
(§10) Evaluations of the herbicidal effect and phytotoxicity were made in the manner similar to those in the above Test Example 1.

[7] = test system: velvetleaf (Abutilon theophrasti); experiment: Soil treatment test for upland field (Test Example 2): velvetleaf; conditions: soil treatment before germination, examined after 3 weeks
Text: as §6, §2, §9, §3, §10

[8] = test system: common lambsquaters (Chenopodium album); experiment: Soil treatment test for upland field (Test Example 2): common lambsquaters; conditions: soil treatment before germination, examined after 3 weeks
Text: as §6, §2, §9, §3, §10

[9] = test system: southern crabgrass; experiment: Foliage treatment test for upland field (Test Example 3): southern crabgrass; conditions: foliage treatment at 1.0-2.0 leaf stage of southern crabgrass, examined after 3 weeks
Text: as §6, §4, §7, §5, §8

[10] = test system: velvetleaf; experiment: Foliage treatment test for upland field (Test Example 3): velvetleaf; conditions: foliage treatment at 1.0-2.0 leaf stage of southern crabgrass, examined after 3 weeks
Text: as §6, §4, §7, §5, §8

[11] = test system: common purslane (Portulaca oleracea); experiment: Soil treatment test for upland field (Test Example 2): common purslane; conditions: soil treatment before germination, examined after 3 weeks
Text: as §6, §2, §9, §3, §10

[12] = test system: corn; experiment: Foliage treatment test for upland field (Test Example 3): phytotoxicity to corn; conditions: foliage treatment at 1.0-2.0 leaf stage of southern crabgrass, examined after 3 weeks
Protocol: as §1, §4, §5

[13] = test system: slender amaranth; experiment: Foliage treatment test for upland field (Test Example 3): slender amaranth; conditions: foliage treatment at 1.0-2.0 leaf stage of southern crabgrass, examined after 3 weeks
Text: as §6, §4, §7, §5, §8

[14] = test system: southern crabgrass (Digitaria ciliaris); experiment: Soil treatment test for upland field (Test Example 2): southern crabgrass; conditions: soil treatment before germination, examined after 3 weeks
Text: as §6, §2, §9, §3, §10

[15] = test system: common purslane; experiment: Foliage treatment test for upland field (Test Example 3): common purslane; conditions: foliage treatment at 1.0-2.0 leaf stage of southern crabgrass, examined after 3 weeks
Text: as §6, §4, §7, §5, §8

[16] = test system: soybean; experiment: Soil treatment test for upland field (Test Example 2): phytotoxicity to soybean; conditions: soil treatment before germination, examined after 3 weeks
Text: as §1, §2, §3

Row | SMILES | Phytotoxicity corn ([1]; dose 2.5 g ai/a) | Phytotoxicity corn ([1]; dose 5 g ai/a) | Phytotoxicity wheat ([2]; dose 2.5 g ai/a) | Phytotoxicity wheat ([2]; dose 5 g ai/a) | Phytotoxicity wheat ([3]; dose 2.5 g ai/a) | Phytotoxicity wheat ([3]; dose 5 g ai/a) | Phytotoxicity soybean ([4]; dose 2.5 g ai/a) | Phytotoxicity soybean ([4]; dose 5 g ai/a) | Herbicidal Effect slender amaranth ([6]; dose 2.5 g ai/a) | Herbicidal Effect slender amaranth ([6]; dose 5 g ai/a) | Herbicidal Effect velvetleaf ([7]; dose 2.5 g ai/a) | Herbicidal Effect velvetleaf ([7]; dose 5 g ai/a) | Herbicidal Effect common lambsquaters ([8]; dose 2.5 g ai/a) | Herbicidal Effect common lambsquaters ([8]; dose 5 g ai/a) | Herbicidal Effect common purslane ([11]; dose 2.5 g ai/a) | Herbicidal Effect common purslane ([11]; dose 5 g ai/a) | Herbicidal Effect southern crabgrass ([14]; dose 2.5 g ai/a) | Herbicidal Effect southern crabgrass ([14]; dose 5 g ai/a) | Phytotoxicity soybean ([16]; dose 2.5 g ai/a) | Phytotoxicity soybean ([16]; dose 5 g ai/a) | also measured
1 | COCC(=Cc1cccc(C(F)(F)F)c1)c1nc2cc(OC(F)(F)F)ccc2o1 [Compound 46] | 0 | 1 | 0 | 0 | 0 | 1 | 1 | 1 | 5 (100%) | 5 (100%) | 4 (80%-less than 100%) | 5 (100%) | 5 (100%) | 5 (100%) | 5 (100%) | 5 (100%) | 4 (80%-less than 100%) | 5 (100%) | 0 | 1 | Herbicidal Effect Common lambsquatters ([5]; dose 2.5 g ai/a): 5 (100%); Herbicidal Effect Common lambsquatters ([5]; dose 5 g ai/a): 5 (100%); Herbicidal Effect southern crabgrass ([9]; dose 2.5 g ai/a): 4 (80%-less than 100%); Herbicidal Effect southern crabgrass ([9]; dose 5 g ai/a): 5 (100%); Herbicidal Effect velvetleaf ([10]; dose 2.5 g ai/a): 4 (80%-less than 100%); Herbicidal Effect velvetleaf ([10]; dose 5 g ai/a): 5 (100%); Phytotoxicity corn ([12]; dose 2.5 g ai/a): 0; Phytotoxicity corn ([12]; dose 5 g ai/a): 1; Herbicidal Effect slender amaranth ([13]; dose 2.5 g ai/a): 5 (100%); Herbicidal Effect slender amaranth ([13]; dose 5 g ai/a): 5 (100%); Herbicidal Effect common purslane ([15]; dose 2.5 g ai/a): 5 (100%); Herbicidal Effect common purslane ([15]; dose 5 g ai/a): 5 (100%)
2 | CSCC(=Cc1cccc(C(F)(F)F)c1)c1nc2cc(C(F)(F)F)ccc2o1 [Compound 82] | 0 | 0 | 0 | 0 | 0 | 0 | 1 | 1 | 5 (100%) | 5 (100%) | 2 (40%-less than 60%) | 2 (40%-less than 60%) | 5 (100%) | 5 (100%) | 5 (100%) | 5 (100%) | 3 (60%-less than 80%) | 3 (60%-less than 80%) | 0 | 0 | Herbicidal Effect Common lambsquatters ([5]; dose 2.5 g ai/a): 5 (100%); Herbicidal Effect Common lambsquatters ([5]; dose 5 g ai/a): 5 (100%); Herbicidal Effect southern crabgrass ([9]; dose 2.5 g ai/a): 4 (80%-less than 100%); Herbicidal Effect southern crabgrass ([9]; dose 5 g ai/a): 4 (80%-less than 100%); Herbicidal Effect velvetleaf ([10]; dose 2.5 g ai/a): 2 (40%-less than 60%); Herbicidal Effect velvetleaf ([10]; dose 5 g ai/a): 3 (60%-less than 80%); Phytotoxicity corn ([12]; dose 2.5 g ai/a): 0; Phytotoxicity corn ([12]; dose 5 g ai/a): 1; Herbicidal Effect slender amaranth ([13]; dose 2.5 g ai/a): 5 (100%); Herbicidal Effect slender amaranth ([13]; dose 5 g ai/a): 5 (100%); Herbicidal Effect common purslane ([15]; dose 2.5 g ai/a): 5 (100%); Herbicidal Effect common purslane ([15]; dose 5 g ai/a): 5 (100%)
3 | CCSCC(=Cc1cccc(C(F)(F)F)c1)c1nc2cc(C(F)(F)F)ccc2o1 [Compound 84] | 0 | 0 | 0 | 0 | 0 | 0 | 0 | 0 | 4 (80%-less than 100%) | 5 (100%) | 2 (40%-less than 60%) | 2 (40%-less than 60%) | 5 (100%) | 5 (100%) | 5 (100%) | 5 (100%) | 3 (60%-less than 80%) | 3 (60%-less than 80%) | 0 | 0 | Herbicidal Effect Common lambsquatters ([5]; dose 2.5 g ai/a): 4 (80%-less than 100%); Herbicidal Effect Common lambsquatters ([5]; dose 5 g ai/a): 5 (100%); Herbicidal Effect southern crabgrass ([9]; dose 2.5 g ai/a): 4 (80%-less than 100%); Herbicidal Effect southern crabgrass ([9]; dose 5 g ai/a): 4 (80%-less than 100%); Herbicidal Effect velvetleaf ([10]; dose 2.5 g ai/a): 2 (40%-less than 60%); Herbicidal Effect velvetleaf ([10]; dose 5 g ai/a): 3 (60%-less than 80%); Phytotoxicity corn ([12]; dose 2.5 g ai/a): 0; Phytotoxicity corn ([12]; dose 5 g ai/a): 1; Herbicidal Effect slender amaranth ([13]; dose 2.5 g ai/a): 5 (100%); Herbicidal Effect slender amaranth ([13]; dose 5 g ai/a): 5 (100%); Herbicidal Effect common purslane ([15]; dose 2.5 g ai/a): 4 (80%-less than 100%); Herbicidal Effect common purslane ([15]; dose 5 g ai/a): 5 (100%)
4 | COCC(=Cc1cccc(C(F)(F)F)c1)c1nc2cc(C#N)c(F)cc2o1 [Compound 117] |  |  |  |  | 0 | 0 | 0 | 1 |  |  |  |  |  |  |  |  |  |  |  |  | Herbicidal Effect Common lambsquatters ([5]; dose 2.5 g ai/a): 5 (100%); Herbicidal Effect Common lambsquatters ([5]; dose 5 g ai/a): 5 (100%); Herbicidal Effect southern crabgrass ([9]; dose 2.5 g ai/a): 4 (80%-less than 100%); Herbicidal Effect southern crabgrass ([9]; dose 5 g ai/a): 5 (100%); Herbicidal Effect velvetleaf ([10]; dose 2.5 g ai/a): 4 (80%-less than 100%); Herbicidal Effect velvetleaf ([10]; dose 5 g ai/a): 5 (100%); Phytotoxicity corn ([12]; dose 2.5 g ai/a): 0; Phytotoxicity corn ([12]; dose 5 g ai/a): 1; Herbicidal Effect slender amaranth ([13]; dose 2.5 g ai/a): 5 (100%); Herbicidal Effect slender amaranth ([13]; dose 5 g ai/a): 5 (100%); Herbicidal Effect common purslane ([15]; dose 2.5 g ai/a): 5 (100%); Herbicidal Effect common purslane ([15]; dose 5 g ai/a): 5 (100%)
5 | CCOCC(=Cc1cccc(C(F)(F)F)c1)c1nc2cc(F)c(F)cc2o1 [Compound 127] | 0 | 0 | 0 | 0 |  |  |  |  | 5 (100%) | 5 (100%) | 3 (60%-less than 80%) | 5 (100%) | 5 (100%) | 5 (100%) | 5 (100%) | 5 (100%) | 4 (80%-less than 100%) | 5 (100%) | 0 | 0 | 
6 | CCOCC(=Cc1cccc(C(F)(F)F)c1)c1nc2cc(F)c(C(F)(F)F)cc2o1 [Compound 141] | 0 | 0 | 0 | 1 |  |  |  |  | 5 (100%) | 5 (100%) | 3 (60%-less than 80%) | 5 (100%) | 5 (100%) | 5 (100%) | 5 (100%) | 5 (100%) | 4 (80%-less than 100%) | 5 (100%) | 0 | 0 | 
